Reference: US20250019370A1, “L-LYSINE SALT OF 4-CHLORO-5-[4-(2,6-DICHLOROPHENYL)SULFONYLPIPERAZIN-1-YL]-1-BENZOFURAN-2-CARBOXYLIC ACID AND VARIOUS FORMS THEREOF” (ENYO PHARMA, priority 2023, published 2025)

How the values were obtained:
[1] = Solubility kinetics in FeSSIF medium; type: physicochemical; conditions: for Soluble fraction: 37 ° C.
Description: The solubility kinetics of the salt forms as well as the native EYP001 free acid form were determined in FaSSIF and FeSSIF media, and in a pH 4.5 acetate buffer as detailed below: The samples were prepared by adding an excess of each tested bulk (salt or native EYP001) to a given volume of test medium. […] In FaSSIF medium, the soluble concentration was assessed after 24 hours of stirring. […] At each time point, the “supernatant” was isolated and diluted in a solvent mixture allowing its injection into the chromatographic system. The concentration in solution in the test medium was determined by HPLC with external standardization.

[2] = Solubility kinetics in FaSSIF medium; type: physicochemical; conditions: after 24 h; for Soluble fraction: 37° C.; for pH: pH given with the soluble fraction
Description: The solubility kinetics of the salt forms as well as the native EYP001 free acid form were determined in FaSSIF and FeSSIF media, and in a pH 4.5 acetate buffer as detailed below: The samples were prepared by adding an excess of each tested bulk (salt or native EYP001) to a given volume of test medium. The suspension was stirred by orbital stirring over 1 hour (in both pH 4.5 acetate buffer and FeSSIF medium) or 24 hours ([…] medium) at 37° C., protected from light. In FaSSIF medium, the soluble concentration was assessed after 24 hours of stirring. […] At each time point, the “supernatant” was isolated and diluted in a solvent mixture allowing its injection into the chromatographic system. The concentration in solution in the test medium was determined by HPLC with external standardization.

[3] = Solubility kinetics in pH 4.5 acetate buffer; type: physicochemical; conditions: 37 ° C.
Description: The solubility kinetics of the salt forms as well as the native EYP001 free acid form were determined in FaSSIF and FeSSIF media, and in a pH 4.5 acetate buffer as detailed below:
The samples were prepared by adding an excess of each tested bulk (salt or native EYP001) to a given volume of test medium. The suspension was stirred by orbital stirring over 1 hour (in both pH 4.5 acetate buffer and FeSSIF medium) or 24 hours (inFaSSIF medium) at 37° C., protected from light.
In pH 4.5 acetate buffer, the soluble concentration was assessed after 0.5 hour and 1 hour of stirring.
At each time point, the “supernatant” was isolated and diluted in a solvent mixture allowing its injection into the chromatographic system. The concentration in solution in the test medium was determined by HPLC with external standardization.

[4] = Thermogravimetric analysis (TGA), mass losses upon heating; type: physicochemical
Description: Thermogravimetric analysis was performed on a TA Instruments TGA Hi-Res 2950 apparatus equipped with an evolved gas analysis furnace. A sample was placed in an opened aluminium basket and analysed according to the following conditions: […]

[5] = Pharmacokinetic study Experiment #4, oral administration in rats; type: in vivo, rat; conditions: 10 mg EqEYP001/Kg
Description: In a fourth study (Experiment #4), EYP001, EYP001 L-lysine salt amorphous Form and EYP001 L-lysine salt Form VI in aqueous formulations (0.5% CMC, 0.25% Tween 80, water) were orally administrated at a dose of 10 mg EqEYP001/Kg in 8 male rats for each compound (4 rats on day 1 and 4 rats on day 2 for each compound). Blood samples were taken at 0.25 h, 0.5 h, 1 h, 2 h, 4 h, 6 h, 8 h, 12 h, and 24 h after oral administration.

[6] = Dynamic Vapor Sorption (DVS) analysis (gas water sorption); type: physicochemical; conditions: for water uptake upon sorption (DVS): 25° C./95% RH; for hygroscopicity (DVS): hygroscopic above 2% mass gain at 25° C./60% RH
Description: The dynamic vapor sorption (DVS) analysis (gas water sorption) was performed on a DVS-Intrinsic incubator (SMS Ltd), equipped with DVS-Intrinsic Control Software 1.0. The sample, placed in an aluminium basket holder, was submitted to a full-cycle analysis (sorption followed by desorption cycle) under the following conditions:
The sample was first pre-dried under a stream of dry air until a stabilized sample mass was observed. Then, the relative humidity was increased by 5% increments. At each step, the sample mass was allowed to increase until equilibrium is reached (according to a given dm/dt target), and then a new relative humidity rise occurred. Relative humidity was ramped up to 95%. After equilibration at this point, desorption began in a similar stepwise manner, with sample mass decrease again allowed to stabilize after each incremental humidity decrease.
With both segments of the above-described method, the sample mass recording allowed describing of the whole vapor water sorption/desorption behaviour versus relative humidity.

[7] = Pharmacokinetic study Experiment #1, oral administration in rats; type: in vivo, rat; conditions: 50 mg EqEYP001/Kg, male rats, aqueous formulation
Description: In a first study (Experiment #1), EYP001, EYP001 Meglumine salt, and EYP001 L-lysine salt Form I in aqueous formulations (0.5% CMC, 0.25% Tween 80, water) were orally administrated at a dose of 50 mg EqEYP001/Kg in 3 male rats for each compound. Blood samples were taken at 0.25 h, 0.5 h, 1 h, 2 h, 4 h, 6 h, 8 h, 12 h, and 24 h after oral administration.

[8] = after 0.5 h, listed as EYP001 L-Lysine salt (Form VI)
[9] = after 1 h, listed as EYP001 L-Lysine salt (Form VI)
[10] = male rats, aqueous formulation, listed as EYP001 L-lysine salt (Form VI)
[11] = male rats, versus EYP001 free acid, listed as EYP001 L-lysine salt (Form VI)
[12] = listed as EYP001 L-lysine salt (form VI)

## O=C([O-])c1cc2c(Cl)c(N3CCN(S(=O)(=O)c4c(Cl)cccc4Cl)CC3)ccc2o1.[K+] [EYP001 Potassium salt, reference compound]
[1]; after 0.5 h
  Soluble fraction: 0.35 mg/mL of EYP001
[1]; after 1 h
  Soluble fraction: 0.38 mg/mL of EYP001
[1]; pH given with the soluble fraction, after 0.5 h
  pH: (pH = 5.0)
[1]; pH given with the soluble fraction, after 1 h
  pH: (pH = 5.0)

## NC1CCCCC1.O=C(O)c1cc2c(Cl)c(N3CCN(S(=O)(=O)c4c(Cl)cccc4Cl)CC3)ccc2o1
[2]
  Soluble fraction: 0.19 mg/mL of EYP001
  pH: 6.5

## O=C(O)c1cc2c(Cl)c(N3CCN(S(=O)(=O)c4c(Cl)cccc4Cl)CC3)ccc2o1.c1ccc(CCNCc2ccccc2)cc1 [EYP001 Benethamine salt (polymorph II)]
[3]; after 0.5 h
  Soluble fraction: 0.0002 mg/mL of EYP001
[3]; after 1 h
  Soluble fraction: 0.0003 mg/mL of EYP001

## O=C(O)c1cc2c(Cl)c(N3CCN(S(=O)(=O)c4c(Cl)cccc4Cl)CC3)ccc2o1.c1ccc(CCNCc2ccccc2)cc1 [EYP001 Benethamine salt (polymorph I)]
[3]; after 0.5 h
  Soluble fraction: 0.001 mg/mL of EYP001
[3]; after 1 h
  Soluble fraction: 0.001 mg/mL of EYP001

## O=C(O)c1cc2c(Cl)c(N3CCN(S(=O)(=O)c4c(Cl)cccc4Cl)CC3)ccc2o1.c1ccc(CCNCc2ccccc2)cc1 [EYP001 Benethamine salt (Polymorph I)]
[2]
  Soluble fraction: 0.01 mg/mL of EYP001
  pH: 6.6

## NCCCC[C@H](N)C(=O)O.O=C(O)c1cc2c(Cl)c(N3CCN(S(=O)(=O)c4c(Cl)cccc4Cl)CC3)ccc2o1 [EYP001 L-lysine salt Form VI, L-lysine salt of 4-chloro-5-[4-(2,6-dichlorophenyl)sulfonylpiperazin-1-yl]-1-benzofuran-2-carboxylic acid]
[4]; TGA step 1
  Start (° C.): 223 °C
  Stop (° C.): 275 °C
  TEndset (° C.): 262 °C
  TOnset (° C.): 251 °C
  Δm (%) mass loss upon heating: 11.2%
[4]; TGA step 2
  Start (° C.): 275 °C
  Stop (° C.): 480 °C
  TEndset (° C.): 344 °C
  TOnset (° C.): 313 °C
  Δm (%) mass loss upon heating: 58.4%
[4]; heater ramp 10 ° C./min, nitrogen, listed as EYP001 L-lysine salt (Form VI)
  onset temperature of thermal decomposition (TGA): 251 °C
[4]; upon heating, listed as EYP001 L-lysine salt (Form VI)
  mass loss before the beginning of thermal decomposition (TGA): no mass loss
[1]; [8]
  Soluble fraction: 0.50 mg/mL of EYP001
[1]; [9]
  Soluble fraction: 0.75 mg/mL of EYP001
[1]; after 2 h, listed as EYP001 L-Lysine salt (Form VI)
  Soluble fraction: 0.90 mg/mL of EYP001
[1]; after 24 h, listed as EYP001 L-Lysine salt (Form VI)
  Soluble fraction: 1.18 mg/mL of EYP001
[1]; pH given with the soluble fraction, after 2 h
  pH: (pH = 4.9)
[1]; pH printed with the soluble fraction, after 0.5 h, listed as EYP001 L-Lysine salt (Form VI)
  pH: (pH = 5.0)
[1]; pH printed with the soluble fraction, after 1 h, listed as EYP001 L-Lysine salt (Form VI)
  pH: (pH = 4.9)
[1]; pH printed with the soluble fraction, after 24 h, listed as EYP001 L-Lysine salt (Form VI)
  pH: (pH = 4.9)
[5]; [10]
  Mean AUClast: 4612.3 ng·h/mL
  Mean Cmax: 2399.2 ng/mL
[5]; [11]
  % increase/EYP001 (AUClast): +36.6%
  % increase/EYP001 (Cmax): +66.1%
[5]; rat
  C max compared to EYP001 free acid: higher C max
  exposure (AUC0-24) compared to EYP001 free acid: superior exposure
  variability of the C max (CV %) compared to EYP001 free acid: strongly reduced
  variability of the exposure (CV %) compared to EYP001 free acid: strongly reduced
[3]; [8]
  Soluble fraction: 0.035 mg/mL of EYP001
[3]; [9]
  Soluble fraction: 0.033 mg/mL of EYP001
[6]; 25° C./0% RH before sorption, listed as EYP001 L-lysine salt (Form VI)
  mass loss during preliminary drying phase: no significant mass loss
[6]; 25° C./60% RH, listed as EYP001 L-lysine salt form VI
  water uptake (DVS): 0.07%
[6]; listed as EYP001 L-lysine salt (Form VI)
  water uptake upon sorption (DVS): 0.4%
[6]; [12]
  water uptake upon sorption (DVS): 0.4%
  hygroscopicity (DVS): non-hygroscopic
[6]; 25° C., listed as EYP001 L-lysine salt (Form VI)
  maximum hysteresis sorption/desorption: 0.15%
[6]; listed as EYP001 L-lysine salt form VI
  hygroscopicity (DVS): non-hygroscopic

## CNCC(O)C(O)C(O)C(O)CO.O=C(O)c1cc2c(Cl)c(N3CCN(S(=O)(=O)c4c(Cl)cccc4Cl)CC3)ccc2o1 [EYP001 Meglumine salt, reference compound]
[7]
  Mean AUC0-24: 33076 ng·h/mL
  Mean Cmax: 5372 ng/mL

## C1COCCN1.O=C(O)c1cc2c(Cl)c(N3CCN(S(=O)(=O)c4c(Cl)cccc4Cl)CC3)ccc2o1 [EYP001 Morpholine salt, reference compound]
[2]
  Soluble fraction: 0.22 mg/mL of EYP001
  pH: 6.5

## O=C(O)c1cc2c(Cl)c(N3CCN(S(=O)(=O)c4c(Cl)cccc4Cl)CC3)ccc2o1.c1ccc(CCNCc2ccccc2)cc1 [EYP001 Benethamine salt (Polymorph II)]
[2]
  Soluble fraction: 0.01 mg/mL of EYP001
  pH: 6.5
